Experimental data reported in patent publication US20040198639A1, “Preserved and stable compositions containing peptide copper complexes and methods related thereto” (ProCyte Corporation, priority 2003, published 2004).

Assay: Storage stability of Example 1 solution: amounts of peptide copper complex and preservatives over time
Assay type: physicochemical
Experimental: The preservatives used are non-formaldehyde-donating preservatives. The solution was placed in a series of small sealed glass vials and stored at room temperature, at 40° C. and at 50° C. At various measured times, the amount of the peptide copper complex and of the preservatives was determined.

In the case of `COC(=O)c1ccc(O)cc1` [Methylparaben, methylparaben], the “Amounts when Stored at 40° C.” value (0 weeks) is reported as 1.83 mg/mL, the “Amounts when Stored at 40° C.” value (1 week) is reported as 1.79 mg/mL and the “Amounts when Stored at 40° C.” value (2 weeks) is reported as 1.80 mg/mL. For the same molecule, the “Amounts when Stored at 40° C.” value (3 weeks) was 1.77 mg/mL, the “Amounts when Stored at 40° C.” value (4 weeks) was 1.75 mg/mL and the “Amounts when Stored at 50° C.” value (0 weeks) was 1.83 mg/mL. For the same molecule, the “Amounts when Stored at 50° C.” value (1 week) was 1.77 mg/mL, the “Amounts when Stored at 50° C.” value (2 weeks) was 1.70 mg/mL and the “Amounts when Stored at 50° C.” value (3 weeks) was 1.65 mg/mL. For the same molecule, the “Amounts when Stored at 50° C.” value (4 weeks) was 1.63 mg/mL, the “Amounts when Stored at Room Temperature” value (0 weeks) was 1.83 mg/mL and the “Amounts when Stored at Room Temperature” value (1 week) was 1.81 mg/mL. The “Amounts when Stored at Room Temperature” value (2 weeks) was 1.84 mg/mL, the “Amounts when Stored at Room Temperature” value (3 weeks) was 1.82 mg/mL and the “Amounts when Stored at Room Temperature” value (4 weeks) was 1.81 mg/mL. The “Amounts when Stored at Room Temperature” value (28 weeks) was 1.80 mg/mL.

With `CCCOC(=O)c1ccc(O)cc1` [Propylparaben, propylparaben] the “Amounts when Stored at 40° C.” value (0 weeks) was 0.18 mg/mL, the “Amounts when Stored at 40° C.” value (1 week) was 0.18 mg/mL and the “Amounts when Stored at 40° C.” value (2 weeks) was 0.18 mg/mL. The “Amounts when Stored at 40° C.” value (3 weeks) was 0.18 mg/mL, the “Amounts when Stored at 40° C.” value (4 weeks) was 0.18 mg/mL and the “Amounts when Stored at 50° C.” value (0 weeks) was 0.18 mg/mL. For the same molecule, the “Amounts when Stored at 50° C.” value (1 week) was 0.18 mg/mL, the “Amounts when Stored at 50° C.” value (2 weeks) was 0.17 mg/mL and the “Amounts when Stored at 50° C.” value (3 weeks) was 0.17 mg/mL. For the same molecule, the “Amounts when Stored at 50° C.” value (4 weeks) was 0.17 mg/mL, the “Amounts when Stored at Room Temperature” value (0 weeks) was 0.18 mg/mL and the “Amounts when Stored at Room Temperature” value (1 week) was 0.18 mg/mL. The “Amounts when Stored at Room Temperature” value (2 weeks) was 0.18 mg/mL, the “Amounts when Stored at Room Temperature” value (3 weeks) was 0.18 mg/mL and the “Amounts when Stored at Room Temperature” value (4 weeks) was 0.18 mg/mL. The “Amounts when Stored at Room Temperature” value (28 weeks) was 0.18 mg/mL.

With glycyl-L-histidyl-L-lysine:copper(II) the “Amounts when Stored at 40° C.” value (0 weeks) was 1.06 mg/mL, the “Amounts when Stored at 40° C.” value (1 week) was 1.04 mg/mL and the “Amounts when Stored at 40° C.” value (2 weeks) was 1.07 mg/mL. For the same molecule, the “Amounts when Stored at 40° C.” value (3 weeks) was 1.06 mg/mL, the “Amounts when Stored at 40° C.” value (4 weeks) was 1.06 mg/mL and the “Amounts when Stored at 50° C.” value (0 weeks) was 1.06 mg/mL. The “Amounts when Stored at 50° C.” value (1 week) was 1.05 mg/mL, the “Amounts when Stored at 50° C.” value (2 weeks) was 1.04 mg/mL and the “Amounts when Stored at 50° C.” value (3 weeks) was 1.04 mg/mL. For the same molecule, the “Amounts when Stored at 50° C.” value (4 weeks) was 1.04 mg/mL, the “Amounts when Stored at Room Temperature” value (0 weeks) was 1.06 mg/mL and the “Amounts when Stored at Room Temperature” value (1 week) was 1.05 mg/mL. The “Amounts when Stored at Room Temperature” value (2 weeks) was 1.06 mg/mL, the “Amounts when Stored at Room Temperature” value (3 weeks) was 1.07 mg/mL and the “Amounts when Stored at Room Temperature” value (4 weeks) was 1.07 mg/mL. For the same molecule, the “Amounts when Stored at Room Temperature” value (28 weeks) was 1.05 mg/mL.
